Test: Radioactive metabolites in plasma, urine and feces after single oral dose of [14C] compound (I) to humans
Type: in vivo, human
Conditions: for % Distribution of radioactive metabolites in pooled plasma, Human (2 h): oral 100-mg [14C] compound (I), plasma 2 h; for Metabolites in Feces (0-168 hr), Human, % Dose / Metabolites in Feces (0-168 hr), Human, % Rad / Metabolites in Urine (0-168 hr), Human, % Dose / Metabolites in Urine (0-168 hr), Human, % Rad: oral 100-mg; for Metabolites in Feces (0-168 hr), Human, % Dose / Metabolites in Feces (0-168 hr), Human, % Rad: pooled fecal extracts 0-168 hr; for Metabolites in Urine (0-168 hr), Human, % Dose / Metabolites in Urine (0-168 hr), Human, % Rad: pooled urine 0-168 hr
Description: Plasma samples were segregated by collection time and equal volumes of individual plasma samples at a given time point were combined for biotransformation profiling.
The C-14 label was on the carbon-2 of the thiazole ring.
HPLC was performed on an Agilent 1100™ system equipped with binary pumps, autoinjector, and a column heater. A Phenomenex Synergy Polar-RP® column (4.6×250 mm, 5 micron) was used for metabolite separation. All HPLC analyses were performed at 1 mL/min flow rate at 35° C. The HPLC mobile phase consisted of (A) water with 0.1% formic acid and (B) acetonitrile with 0.1% formic acid.
Each fraction of column eluent was evaporated to dryness on a Savant Speed-Vac (Savant Instruments Inc., Holbrook, N.Y.) and counted for radioactivity with a Packard Top Count® microplate scintillation analyzer (Packard Biosciences, Downers Grove, Ill.).
The volumes of pooled plasma processed for HPLC analysis for rat, monkey and human ranged between 1.5 and 8.0 mL. Pooled plasma samples were extracted with methanol/acetonitrile (1:1) at a ratio of 2 volumes solvent to 1 volume of plasma. The mixtures were vortex mixed, sonicated for 5 min, and centrifuged at 3500 rpm for 10 min. The supernatants were transferred into new tubes. The remaining pellets were extracted two more times with 3 mL of methanol/acetonitrile (1:1). The supernatants were combined and evaporated to dryness in a Savant Speed-Vac (Savant Instruments, Inc., Holbrook, N.Y.). The residue was reconstituted into 0.35 to 0.45 mL of 30% acetonitrile in water, vortex mixed and centrifuged at 13000 rpm for 5 min (American Scientific Products Biofuge A centrifuge, Heraeus Sepatech GmbH, Germany). The supernatant was injected onto the HPLC for profiling. Aliquots of the reconstituted samples (30 μl) were also counted on the liquid scintillation counter (LSC) to determine the recovery of radioactivity.
The pooled monkey and human urine samples (3-5 mL) were extracted with 2 volumes of acetonitrile/acetone (1:1). The mixtures were vortex mixed, sonicated and centrifuged at 3500 rpm for 10 min. The supernatants were evaporated to dryness. The residue was suspended in 0.3-0.5 mL of 30% acetonitrile in water and centrifuged at 13000 rpm for 5 min. Aliquots of the supernatants were injected onto the HPLC or analyzed by LSC for radioactivity recovery. Pooled urine samples from BDC monkeys and rats were centrifuged at 13000 rpm for 10 min and injected onto the HPLC for profiling without further treatment.
The amount of fecal homogenate used for analysis was 0.20, 0.19 and 0.51 g for rat, monkey and human, respectively. Each pooled fecal homogenate was extracted by addition of 3 volumes of acetonitrile/methanol (1:1) to 1 volume of fecal homogenate and mixed on a vortex mixer. The mixture was sonicated for 5 min and then centrifuged at 3000 rpm for 10 min. The supernatants were removed and saved. The extraction was repeated two additional times and the supernatants were combined and evaporated to dryness on a Savant Speed-Vac. […] An aliquot of the supernatant was injected onto the HPLC or analyzed by LSC for radioactivity recovery.
The LC/MS system used for analysis of plasma, urine, bile, and fecal samples consisted of an Agilent 1100™ HPLC system connected to a Finnigan LCQ-DecaXP mass spectrometer. Samples were analyzed using positive electrospray ionization. The capillary temperature used for analysis was 320° C., and the nitrogen gas flow rate, spray current, and voltages were adjusted to give maximum sensitivity. The HPLC conditions were described in section 3.3.1.
Counts per min (CPM) were determined on a Packard TopCount NXT microplate scintillation and luminescence counter. For each injection, the average CPM value (2-4 CPM) obtained from fractions between 2-3 min (column void) in the chromatogram was subtracted from the CPM value of each fraction. Biotransformation profiles were prepared by plotting the background subtracted CPM values against time-after-injection.

% Distribution of radioactive metabolites in pooled plasma, Human (2 h)	Metabolites in Feces (0-168 hr), Human, % Dose	Metabolites in Feces (0-168 hr), Human, % Rad	Metabolites in Urine (0-168 hr), Human, % Dose	Metabolites in Urine (0-168 hr), Human, % Rad	Compound
12.5%	31.2%	36.6%	0.2%	4.1%	Cc1nc(Nc2ncc(C(=O)Nc3c(C)cc(O)cc3Cl)s2)cc(N2CCN(CCO)CC2)n1 [M20 (V)]
	2.6%	3.1%	0.05%	1.3%	Cc1nc(Nc2ncc(C(=O)Nc3c(C)cccc3Cl)s2)cc(N2CCNCC2)n1 [M4 (II)]
25.5%	19.1%	22.4%	0.1%	3.6%	Cc1nc(Nc2ncc(C(=O)Nc3c(C)cccc3Cl)s2)cc(N2CCN(CCO)CC2)n1 [Parent (I), N-(2-Chloro-6-methylphenyl)-2-[[6-[4-(2-hydroxyethyl)-1-piperazinyl]-2-methyl-4-pyrimidinyl]amino]-5-thiazolecarboxamide]
3.1%	4.0%	4.7%	0.2%	6.0%	Cc1nc(Nc2ncc(C(=O)Nc3c(Cl)cccc3CO)s2)cc(N2CCN(CCO)CC2)n1 [M24 (VI), N-(2-chloro-6-(hydroxymethyl)phenyl)-2-(6-(4-(2-hydroxyethyl)piperazin-1-yl)-2-methylpyrimidin-4-ylamino)thiazole-5-carboxamide]
4.5%			1.4%	39.8%	Cc1nc(Nc2ncc(C(=O)Nc3c(C)cccc3Cl)s2)cc(N2CC[N+]([O-])(CCO)CC2)n1 [M5 (III)]
3.6%	8.9%	10.4%	0.05%	1.3%	Cc1nc(Nc2ncc(C(=O)Nc3c(C)cccc3Cl)s2)cc(N2CCN(CC(=O)O)CC2)n1 [M6 (IV), 2-(4-(6-(5-((2-Chloro-6-methylphenyl)carbamoyl)thiazol-2-ylamino)-2-methylpyrimidin-4-yl)piperazin-1-yl)acetic acid]
